Compound | melting point
CCOc1cc2c(cc1C(F)(F)F)NC(=O)CC(c1cccc(-c3cc(C)nc(CO)c3)c1)=N2 [Example 406, 7-Ethoxy-4-[3-(2-hydroxymethyl-6-methyl-pyridin-4-yl)-phenyl]-8-trifluoromethyl-1,3-dihydro-benzo[b][1,4]diazepin-2-one] | 225 °C
O=C1CC(c2cccc(-c3cccnc3)c2)=Nc2ccc(C#Cc3ccccc3)cc2N1 [Example 175, 8-Phenylethynyl-4-(3-pyridin-3-yl-phenyl)-1,3-dihydro-benzo[b][1,4]diazepin-2-one] | 241 °C
Cc1cc(-c2cccc(C3=Nc4cc(C)c(Cl)cc4NC(=O)C3)c2)nc(N)n1 [Example 316, 4-[3-(2-Amino-6-methyl-pyrimidin-4-yl)-phenyl]-8-chloro-7-methyl-1,3-dihydro-benzo[b][1,4]diazepin-2-one] | 242 to 243 °C
O=C1CC(c2cccc(-c3ccnc(N4CCOCC4)c3)c2)=Nc2cc(OCC(F)(F)F)c(C(F)(F)F)cc2N1 [Example 386, 4-[3-(2-Morpholin-4-yl-pyridin-4-yl)-phenyl]-7-(2,2,2-trifluoro-ethoxy)-8-trifluoromethyl-1,3-dihydro-benzo[b][1,4]diazepin-2-one] | 189 to 190 °C
O=C1CC(c2cccc(-c3cncnc3)c2)=Nc2ccc(Cl)cc2N1 [Example 94, 8-Chloro-4-(3-pyrimidin-5-yl-phenyl)-1,3-dihydro-benzo[b][1,4]diazepin-2-one] | 234 °C
Cc1cc(-c2cccc(C3=Nc4cc(C(F)(F)F)c(C(F)(F)F)cc4NC(=O)C3)c2)cc(C)n1 [Example 415, 4-[3-(2,6-Dimethyl-pyridin-4-yl)-phenyl]-7,8-bis-trifluoromethyl-1,3-dihydro-benzo[b][1,4]diazepin-2-one] | 220 °C
Cc1cc(-c2cccc(C3=Nc4cc(N5CCOCC5)c(C(F)(F)F)cc4NC(=O)C3)c2)cc(C)n1 [Example 384, 4-[3-(2,6-Dimethyl-pyridin-4-yl)-phenyl]-7-morpholin-4-yl-8-trifluoromethyl-1,3-dihydro-benzo[b][1,4]diazepin-2-one] | 251 to 252 °C
CCCN(C)c1cc2c(cc1C(F)(F)F)NC(=O)CC(c1cccc(-c3cc(C)nc(C)c3)c1)=N2 [Example 413, 4-[3-(2,6-Dimethyl-pyridin-4-yl)-phenyl]-7-(methyl-propyl-amino)-8-trifluoromethyl-1,3-dihydro-benzo[b][1,4]diazepin-2-one] | 233 °C
CCOc1cc2c(cc1C(F)(F)F)NC(=O)CC(c1cccc(-c3cnc(C4CC4)cc3C)c1)=N2 [Example 247, 4-[3-(6-Cyclopropyl-4-methyl-pyridin-3-yl)-phenyl]-7-ethoxy-8-trifluoromethyl-1,3-dihydro-benzo[b][1,4]diazepin-2-one] | 202 °C
CCCc1cc2c(cc1C(F)(F)F)NC(=O)CC(c1cccc(-c3cc(C)nc(C)c3)c1)=N2 [Example 229, 4-[3-(2,6-Dimethyl-pyridin-4-yl)-phenyl]-7-propyl-8-trifluoromethyl-1,3-dihydro-benzo[b][1,4]diazepin-2-one] | 216 °C
COc1ccc(-c2cccc(C3=Nc4cc(OCC(F)(F)F)ccc4NC(=O)C3)c2)cn1 [Example 169, 4-[3-(6-Methoxy-pyridin-3-yl)-phenyl]-7-(2,2,2-trifluoro-ethoxy)-1,3-dihydro-benzo[b][1,4]diazepin-2-one] | 186 °C
CCOc1ccc2c(c1)N=C(c1cccc(-c3cccnc3)c1)CC(=O)N2 [Example 162, 7-Ethoxy-4-(3-pyridin-3-yl-phenyl)-1,3-dihydro-benzo[b][1,4]diazepin-2-one] | 166 to 169 °C
Cc1cc2c(cc1Cl)NC(=O)CC(c1cccc(-c3ccncn3)c1)=N2 [Example 297, 8-Chloro-7-methyl-4-(3-pyrimidin-4-yl-phenyl)-1,3-dihydro-benzo[b][1,4]diazepin-2-one] | 242 to 247 °C
O=C1CC(c2cccc(-c3ccncc3)c2)=Nc2ccc(F)cc2N1 [Example 8, 8-Fluoro-4-(3-pyridin-4-yl-phenyl)-1,3-dihydro-benzo[b][1,4]diazepin-2-one] | 190 to 192 °C
Cc1cc(-c2cccc(C3=Nc4ccccc4NC(=O)C3)c2)ccn1 [Example 71, 4-[3-(2-Methyl-pyridin-4-yl)-phenyl]-1,3-dihydro-benzo[b][1,4]diazepin-2-one] | 192 °C
CCOc1cc2c(cc1Cl)NC(=O)CC(c1cccc(-c3cccnc3)c1)=N2 [Example 181, 8-Chloro-7-ethoxy-4-(3-pyridin-3-yl-phenyl)-1,3-dihydro-benzo[b][1,4]diazepin-2-one] | 210 °C
CCc1ccc(-c2cccc(C3=Nc4cc(C)c(Cl)cc4NC(=O)C3)c2)cn1 [Example 189, 8-Chloro-4-[3-(6-ethyl-pyridin-3-yl)-phenyl]-7-methyl-1,3-dihydro-benzo[b][1,4]diazepin-2-one] | 182 to 185 °C
CC(C)c1cc(-c2cccc(C3=Nc4ccc(C(F)(F)F)cc4NC(=O)C3)c2)ccn1 [Example 272, 4-[3-(2-Isopropyl-pyridin-4-yl)-phenyl]-8-trifluoromethyl-1,3-dihydro benzo[b][1,4]diazepin-2-one] | 168 °C
Cc1cc(-c2cccc(C3=Nc4cc(OCC(F)(F)F)c(C(F)(F)F)cc4NC(=O)C3)c2)cc(C2CC2)n1 [Example 259, 4-[3-(2-Cyclopropyl-6-methyl-pyridin-4-yl)-phenyl]-7-(2,2,2-trifluoro-ethoxy)-8-trifluoromethyl-1,3-dihydro-benzo[b][1,4]diazepin-2-one] | 200 °C
Cc1cc2c(cc1Cl)NC(=O)CC(c1cccc(-c3cnccn3)c1)=N2 [Example 86, 8-Chloro-7-methyl-4-(3-pyrazin-2-yl-phenyl)-1,3-dihydro-benzo[b][1,4]diazepin-2-one] | 232 °C
CC(C)Cc1cc(-c2cccc(C3=Nc4ccc(C(F)(F)F)cc4NC(=O)C3)c2)ccn1 [Example 281, 4-[3-(2-Isobutyl-pyridin-4-yl)-phenyl]-8-trifluoromethyl-1,3-dihydro benzo[b][1,4]diazepin-2-one] | 181 °C
Cc1ncccc1-c1cccc(C2=Nc3ccc(Cl)cc3NC(=O)C2)c1 [Example 32, 8-Chloro-4-[3-(2-methyl-pyridin-3-yl)-phenyl]-1,3-dihydro-benzo[b][1,4]diazepin-2-one] | 198 °C
COCc1cc(-c2cccc(C3=Nc4cc(C)c(Cl)cc4NC(=O)C3)c2)ccn1 [Example 399, 8-Chloro-4-[3-(2-methoxymethyl-pyridin-4-yl)-phenyl]-7-methyl-1,3-dihydro-benzo[b][1,4]diazepin-2-one] | 216 °C
Cc1cc2c(cc1Cl)NC(=O)CC(c1ccnc(-c3cccnc3)c1)=N2 [Example 291, 4-[2,3′]Bipyridinyl-4-yl-8-chloro-7-methyl-1,3-dihydro-benzo[b][1,4]diazepin-2-one] | 229 to 231 °C

More lines, now with the values ahead:

melting point | Compound
182 °C | CCc1cnc(C)cc1-c1cccc(C2=Nc3cc(C)c(C(F)(F)F)cc3NC(=O)C2)c1 [Example 148, 4-[3-(5-Ethyl-2-methyl-pyridin-4-yl)-phenyl]-7-methyl-8-trifluoromethyl-1,3-dihydro benzo[b][1,4]diazepin-2-one]
217 °C | O=C1CC(c2cccc(-c3cncnc3)c2)=Nc2cc(C(F)(F)F)c(Cl)cc2N1 [Example 111, 8-Chloro-4-(3-pyrimidin-5-yl-phenyl)-7-trifluoromethyl-1,3-dihydro-benzo[b][1,4]diazepin-2-one]
222 °C | Cc1cc2c(cc1C(F)(F)F)NC(=O)CC(c1cccc(-c3ccnc(C)c3C)c1)=N2 [Example 141, 4-[3-(2,3-Dimethyl-pyridin-4-yl)-phenyl]-7-methyl-8-trifluoromethyl-1,3-dihydro benzo[b][1,4]diazepin-2-one]
209 °C | O=C1CC(c2cccc(-c3ccnc(CO)c3)c2)=Nc2cc(C(F)(F)F)c(C(F)(F)F)cc2N1 [Example 417, 4-[3-(2-Hydroxymethyl-pyridin-4-yl)-phenyl]-7,8-bis-trifluoromethyl-1,3-dihydro-benzo[b][1,4]diazepin-2-one]
223 °C | Cc1cc2c(cc1C(F)(F)F)NC(=O)CC(c1cccc(-c3ccnnc3)c1)=N2 [Example 49, 7-Methyl-4-(3-pyridazin-4-yl-phenyl)-8-trifluoromethyl-1,3-dihydro-benzo[b][1,4]diazepin-2-one]
190 to 191 °C | COCCOc1cc2c(cc1C(F)(F)F)NC(=O)CC(c1cccc(-c3cccnc3)c1)=N2 [Example 208, 7-(2-Methoxy-ethoxy)-4-(3-pyridin-3-yl-phenyl)-8-trifluoromethyl-1,3-dihydro-benzo[b][1,4]diazepin-2-one]
247 °C | Cc1cc2c(cc1Cl)NC(=O)CC(c1cccc(-c3ccnc(C(F)(F)F)c3)c1)=N2 [Example 264, 8-Chloro-7-methyl-4-[3-(2-trifluoromethyl-pyridin-4-yl)-phenyl]-1,3-dihydro-benzo[b][1,4]diazepin-2-one]
198 to 199 °C | COCCOc1cc2c(cc1C(F)(F)F)NC(=O)CC(c1cccc(-c3ccnc(C)c3)c1)=N2 [Example 242, 7-(2-Methoxy-ethoxy)-4-[3-(2-methyl-pyridin-4-yl)-phenyl]-8-trifluoromethyl-1,3-dihydro-benzo[b][1,4]diazepin-2-one]
205 to 207 °C | Cc1ccncc1-c1cccc(C2=Nc3cc(C)c(C(F)(F)F)cc3NC(=O)C2)c1 [Example 233, 7-Methyl-4-[3-(4-methyl-pyridin-3-yl)-phenyl]-8-trifluoromethyl-1,3-dihydro-benzo[b][1,4]diazepin-2-one]
220 to 221 °C | Cc1cc2c(cc1C(F)(F)F)NC(=O)CC(c1cccc(-c3ccc(C4CC4)nc3)c1)=N2 [Example 167, 4-[3-(6-Cyclopropyl-pyridin-3-yl)-phenyl]-7-methyl-8-trifluoromethyl-1,3-dihydro-benzo[b][1,4]diazepin-2-one]
205 to 211 °C | Cc1cc(-c2cccc(C3=Nc4cc(C5CC5)c(C(F)(F)F)cc4NC(=O)C3)c2)ccn1 [Example 350, 7-Cyclopropyl-4-[3-(2-methyl-pyridin-4-yl)-phenyl]-8-trifluoromethyl-1,3-dihydro-benzo[b][1,4]diazepin-2-one]
